The values that follow come from patent publication US9422235B2, “Sulfonamide derivatives with therapeutic indications” (Pharmos Corporation, priority 2006, dated 2016).

One assay addresses human CB2 receptor (Homo sapiens (Human), UniProt P34972). Briefly: [35S]GTPγS-binding assay, functional activity at the human CB2 receptor. Particulars: Cell line C2-4. The class given is biochemical. As to the method: Functional activity of compounds of the invention toward the cannabinoid receptors was determined by stimulation of [^35S]-GTPγS binding using membranes from HEK-293 cells expressing the hCB1 receptor and membranes expressing the hCB2 receptor derived from either Sf9 (PerkinElmer) or from HEK-293 cells. Activities were compared to that of the known cannabinoid full agonist CP55940 (Alexis). The purpose of this experiment is to determine the potency of the compounds of the invention as agonists or antagonists toward each of the receptor tested.
[^35]-GTPγS binding reactions were performed at 30° C. in 96-well plates containing 5-10 μg membrane protein suspended in 0.1 ml binding buffer (20 mM HEPES-NaOH, pH 7.4, 5 mM MgCl2, 100 mM NaCt, 0.2% (w/v) bovine serum albumin) supplemented with 50 μM GDP and 0.06 nM-10 μM of the compound being tested. Binding was initiated by the addition of [^35S]GTPγS (0.3 nM final concentration). Incubations were performed for 90 minutes and were terminated by filtration on GF/C filter plates (PerkinElmer). Filters were washed ten times with ice-cold wash buffer (20 mM HEPES-NaOH, pH 7.4, 10 mM sodium pyrophosphate). Non-specific binding was measured in the presence of 15 μM GTPγS.
Assays were performed in duplicates. Data was analyzed by plotting on the X axis the log concentration against percent of specific [^35S]GTPγS binding out of basal [^35S]GTPγS binding on the Y axis, non-linear regression is then performed using GraphPad Prism, version 3.0 (GraphPad, San Diego, Calif.) to calculate the EC50 and Emax of the compound. The EC50 value represents the concentration at which there is 50% [^35S]GTPγS binding and the Emax value the upper plateau of the curve.
CP55940 is a full agonist of the human and rat CB2 receptors. […] Full or partial agonism at the receptor was determined relative to the Emax value of CP55940.

The subject of assay [1] is Male Sprague Dawley rats. Put plainly: Thermal analgesic activity in CFA-induced inflammatory acute pain (Plantar test). Particulars: one hour post daily administration, third day of treatment. The class given is in vivo, rat. As to the method:
The thermal analgesic effect induced by compounds of the present invention on inflammatory acute pain was assessed. Inflammatory pain and paw edema were induced by intraplantar injection of 50% Complete Freund's Adjuvant (CFA) suspension in the animal hind paw.
Male Sprague Dawley rats (average body weight 200 g, Harlan, Israel) were transiently sedated by placement on dry ice for the duration of the injections. Rats were injected subcutaneously, in the subplantar region of one (right) paw with 0.15 ml of 50% w/v CFA in sterile saline. […] Test compounds were administered i.p. at initial single dose of 10-60 mg/kg (depending on the test compound), and volume dose of 5 ml/kg, 24 hours post CFA injection. Vehicle and Celecoxib treated animals were used as controls. Each treatment group comprised at least six animals.
Prior to, 48 hours post induction of inflammatory pain and one hour after daily drug administration, the animals reaction to pain stimuli was tested by thermal stimulus. The thermal analgesia was assessed using a Plantar test (Ugo Basile). At the end of the study, animals were euthanized.
Results, expressed as percent of baseline value (% reversal) or withdrawal latency, are depicted in FIGS. 9 and 10. […] Results are expressed as mean±SEM for each treatment group and the differences among those groups are analyzed by T-test. […]

In the next assay the test system is female BALB/c mice. Put plainly: Dextran Sulfate Salt (DSS)-induced acute colitis. The assay is classed as in vivo, mouse. Particulars: for % Survival / Clinical score / Percentage change in body weight: i.p.; for efficacy in DSS-induced colitis (weight loss, clinical signs or gross pathology): administered intraperitoneally. The text has this: In order to test the activity of compounds of the invention in an animal model of inflammatory bowel disease, female BALB/c mice 9-12 week old (Harlan, Israel) were used for Dextran Sulfate Salt (DSS)-induced acute colitis studies. Mice (ten per treatment group) were provided with a solution of tap water containing 5% DSS (MW. 36000-50000; MP Biomedicals, LLC) ad libitum over an 8 day period. The DSS solution was replenished every other day and switched to tap water at day 8. Body weight was measured daily. The clinical scores combined both macroscopic (diarrhea, body weight, mortality) as well as microscopic (pathological) scores. Diarrhea score in the studies for each animal represented the daily summary of stool consistency (scored as: 0, normal; 1, soft but still formed; 2, very soft; 3, diarrhea) and the presence of blood in stool (scored: 0, None; 1, visible blood traces in stool; 2, signs of blood; 3, rectal bleeding). At the end of experiment animals were euthanized and their colons are examined for signs of pathological damage. The pathological scores, colon length and weight were determined from the cecum to the anus (scored: 0, normal; 1, slight inflammation; 2, moderate inflammation and/or edema; 3, heavy inflammation and/or ulceration and/or edema).
Two compounds were tested in DSS-induced colitis in mice, compounds 4 and 58. […] Results are expressed as mean ± SEM for each treatment group and the differences among those groups are analyzed by T-test. Two crosshatches indicate a p value below 0.01 and three indicate a p value below 0.001. Asterisks denote statistical significant weight loss relative to animal weight in the beginning of the experiment.
Alternatively, compound 58 (30 mg/kg) was administered orally from the first day of DSS administration (day 1) until the end of the experiment (day 10).

The test system of assay [2] is Male Sprague Dawley rats. Briefly: Chronic constriction induced (CCI) model of neuropathic pain, mechanical hyperalgesia. Particulars: 10 mg/kg, s.i.d, 14 days. The class given is in vivo, rat. As to the method:
The analgesic activity of compounds of the invention is assessed in a chronic constriction induced (CCI) model of neuropathic pain. A peripheral neuropathy is induced in the left hind limb of rats following a chronic constriction of the sciatic nerve according to Bennet et al. (Bennet, G. J. & Xie, Y-K., Pain 33: 87-107, 1988). The development of mechanical hyperalgesia is monitored using an established behavioral test analgesy meter or dynamic planter aesthesiometer.
Pre-surgery baseline values are ascertained as the mean of 2 pre-surgery values. Once the baseline values are established, the animals are surgically prepared by constricting the left sciatic nerve with 4-0 chromic catgut loose ligatures. […]
The design is randomized, performed in a masked fashion as to whether drug or vehicle is being given. […] On the testing day, 24 hours after administration period lapsed, the differences between ipsilateral and contralateral hind leg thresholds were measured in grams using the Dynamic planter aesthesiometer or analgesy meter (Ugo basile).
Results are expressed as mean±SEM for each treatment group and the differences among those groups are analyzed by analysis of variance (ANOVA) followed by post-hoc analysis using Tukey's test. […]

Assay [3] relates to Male Sprague Dawley rats. Briefly: CFA-induced acute inflammatory pain, mechanical stimulus (Dynamic Plantar Aesthesiometer). Particulars: three hours post administration. The assay is classed as in vivo, rat. As to the method:
Acute Inflammatory Pain. The purpose of this study is to test the analgesic activity of the compounds in inflammatory pain. Inflammatory pain is nociceptive in nature, wherein the pain sensation is often perceived for longer period than in acute pain. In the present model the duration of the preventive activity of compounds against inflammatory acute pain was assessed for up to about three hours post-drug administration. Inflammatory pain and paw edema were induced by intraplantar injection of 50% Complete Freund's Adjuvant (CFA) suspension in the animal hind paw. […]
Prior to, 24 hours post induction of inflammatory pain and one and three hours after drug administration, the animals reactions to pain stimuli were tested by mechanical stimulus. The mechanical (tactile) analgesia was assessed using a Dynamic Plantar Aesthesiomether (Ugo Basile Model 73400-002). […]
The results are presented as the force needed for hind paw withdrawal before surgery, 24 hours post surgery and 1 and 3 hours post drug administration. Results are expressed as mean±SEM for each treatment group and the differences among those groups are analyzed by analysis of variance (ANOVA). […]
The baseline values for the force to be applied for left hind paw withdrawal following mechanical stimuli is about 30 gram before inflammatory pain induction. […] Results, expressed as Force measured in grams, are depicted in FIG. 3.

[4] abbreviates: Emax of compound divided by Emax of CP55940.
[5] abbreviates: upper plateau of [35S]GTPγS binding curve.

Where two headings read alike, the source gives them in different places.

Sequence of human CB2 receptor (P34972 whole entry): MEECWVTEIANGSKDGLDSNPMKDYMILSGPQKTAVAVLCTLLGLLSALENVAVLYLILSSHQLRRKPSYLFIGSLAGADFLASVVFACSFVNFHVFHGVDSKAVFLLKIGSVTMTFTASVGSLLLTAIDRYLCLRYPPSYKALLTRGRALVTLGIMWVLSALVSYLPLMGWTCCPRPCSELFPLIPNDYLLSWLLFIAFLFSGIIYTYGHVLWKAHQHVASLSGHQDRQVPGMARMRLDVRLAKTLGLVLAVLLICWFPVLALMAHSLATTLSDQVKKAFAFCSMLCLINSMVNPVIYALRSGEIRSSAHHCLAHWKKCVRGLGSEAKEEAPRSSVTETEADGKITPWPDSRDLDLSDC

On to “4-(Bicyclo[2.2.1]hept-2-ylamino)-N-cyclopropylmethyl-2-trifluoromethyl-benzenesulfonamide [Compound 58]”, for which the “% Activity (relative to CP55,940)” value on human CB2 receptor (setting [4]) came to 40%. For the same compound, the “Emax (%)” value on human CB2 receptor (setting [5]) is recorded as 29%. For the same compound, the “reversal of thermal pain threshold (withdrawal latency)” value in the assay with Male Sprague Dawley rats [1] (30 mg/kg i.p.) is given as “reversed the pain threshold”. In addition, in the assay with female BALB/c mice (10 mg/kg), the “% Survival” value is recorded as 100%, the Clinical score stood at 4.33 ± 0.22 and the “Percentage change in body weight” value was −12.9 ± 2.6 %. Besides, the mortality entry with female BALB/c mice (30 mg/kg orally, day 1 to day 10) was “not observed”. Further, the “clinical score over time” value in the assay with female BALB/c mice (30 mg/kg orally, day 1 to day 10, from day 8 until end of experiment) is “statistical significant amelioration”. In the assay on female BALB/c mice (30 mg/kg orally, day 1 to day 10, not statistically significant versus vehicle), the pathological score amounted to 1.9±0.5. Also, in the assay with female BALB/c mice (30 mg/kg), the “% Survival” value turned out to be 100%, the Clinical score is recorded as 4.58 ± 0.2 and the “Percentage change in body weight” value is −13.9 ± 2.3 %. Besides, in the assay on female BALB/c mice, the “efficacy in DSS-induced colitis (weight loss, clinical signs or gross pathology)” value was “modest efficacy”.

On to `COc1cc(Nc2ccc(S(=O)(=O)NCC3CC3)c(C(F)(F)F)c2)cc(OC)c1` [Compound 4, N-Cyclopropylmethyl-4-(3,5-dimethoxy-phenylamino)-2-trifluoromethyl-benzenesulfonamide], for which the Emax was determined as 51% at human CB2 receptor (Emax of compound divided by Emax of CP55940, read-out: % Activity (relative to CP55,940)) and 26% at human CB2 receptor (upper plateau of [35S]GTPγS binding curve, read-out: Emax (%)). Moreover, in the assay with Male Sprague Dawley rats [2], the “reduction of the CCI induced hyperalgesia” value is “significant reduction”. Moreover, the “% Survival” value in the assay on female BALB/c mice (20 mg/kg) amounted to 90%; in the assay on female BALB/c mice (40 mg/kg) it was 100%. Also, the Clinical score with female BALB/c mice (20 mg/kg) is recorded as 3.4 ± 0.7; in the assay on female BALB/c mice (40 mg/kg), 3.1 ± 0.6. The “Percentage change in body weight” value in the assay on female BALB/c mice (20 mg/kg) is recorded as −9.6 ± 1.59 %; in the assay with female BALB/c mice (40 mg/kg), −5 ± 2.3 %. Also, in the assay on female BALB/c mice, the “efficacy in DSS-induced colitis (weight loss, clinical signs or gross pathology)” value is on record as “modest efficacy”. The “reversal of pain threshold of injured paw” value was found to be 50% in the assay with Male Sprague Dawley rats [3] (10 mg/kg i.p.) and 100% in the assay with Male Sprague Dawley rats [3] (30 mg/kg i.p.).

With “N-Cyclopropylmethyl-4-(piperidin-1-ylamino)-2-trifluoromethyl-benzenesulfonamide [Compound 94]”, the “% Activity (relative to CP55,940)” value at human CB2 receptor (setting [4]) is given as 30%. Moreover, the “Emax (%)” value on human CB2 receptor (setting [5]) is 20%. Moreover, the “reversal of thermal pain threshold (percent of baseline value, % reversal)” value in the assay with Male Sprague Dawley rats [1] (60 mg/kg i.p.) is recorded as “reversed the pain threshold”.
